Values of other authors as cited in US20060035883A1, “Novel serotonin receptor ligands and their uses thereof” (priority 2004, published 2006).

How the values were obtained:
Conditions in all cases: read-out: Receptor affinities (Ki)
5-HT2C = target: T1, 5-HT2C (Homo sapiens, UniProt P28335)
T1 sequence (P28335 33-458): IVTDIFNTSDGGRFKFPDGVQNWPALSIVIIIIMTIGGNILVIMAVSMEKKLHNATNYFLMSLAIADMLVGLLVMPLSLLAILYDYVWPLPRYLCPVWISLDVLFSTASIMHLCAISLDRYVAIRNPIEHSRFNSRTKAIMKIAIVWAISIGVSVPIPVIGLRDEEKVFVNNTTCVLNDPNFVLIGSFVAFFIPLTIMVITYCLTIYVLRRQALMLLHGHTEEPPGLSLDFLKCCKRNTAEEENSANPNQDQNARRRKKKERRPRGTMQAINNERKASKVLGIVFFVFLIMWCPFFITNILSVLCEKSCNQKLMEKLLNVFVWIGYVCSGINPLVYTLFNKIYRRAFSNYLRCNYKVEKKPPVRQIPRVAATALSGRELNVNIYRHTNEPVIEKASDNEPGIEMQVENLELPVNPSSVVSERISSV

5-HT3 = target: T2, 5-HT3 (Homo sapiens, UniProt P46098)
T2 sequence (P46098 24-478): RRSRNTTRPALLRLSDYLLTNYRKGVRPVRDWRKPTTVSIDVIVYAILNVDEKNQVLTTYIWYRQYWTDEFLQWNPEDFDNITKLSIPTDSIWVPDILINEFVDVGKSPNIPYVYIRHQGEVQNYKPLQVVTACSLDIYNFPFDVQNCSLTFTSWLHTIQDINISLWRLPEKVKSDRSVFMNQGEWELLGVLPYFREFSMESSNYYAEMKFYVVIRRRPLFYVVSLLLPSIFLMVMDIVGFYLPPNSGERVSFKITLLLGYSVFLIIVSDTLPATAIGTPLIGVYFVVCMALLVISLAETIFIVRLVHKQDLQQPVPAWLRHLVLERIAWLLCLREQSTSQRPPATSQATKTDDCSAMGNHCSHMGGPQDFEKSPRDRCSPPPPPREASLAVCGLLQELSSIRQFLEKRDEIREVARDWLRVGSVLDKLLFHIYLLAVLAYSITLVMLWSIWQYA

D2 = D2 (Homo sapiens, UniProt P14416)
Chain of D2 (P14416 whole entry): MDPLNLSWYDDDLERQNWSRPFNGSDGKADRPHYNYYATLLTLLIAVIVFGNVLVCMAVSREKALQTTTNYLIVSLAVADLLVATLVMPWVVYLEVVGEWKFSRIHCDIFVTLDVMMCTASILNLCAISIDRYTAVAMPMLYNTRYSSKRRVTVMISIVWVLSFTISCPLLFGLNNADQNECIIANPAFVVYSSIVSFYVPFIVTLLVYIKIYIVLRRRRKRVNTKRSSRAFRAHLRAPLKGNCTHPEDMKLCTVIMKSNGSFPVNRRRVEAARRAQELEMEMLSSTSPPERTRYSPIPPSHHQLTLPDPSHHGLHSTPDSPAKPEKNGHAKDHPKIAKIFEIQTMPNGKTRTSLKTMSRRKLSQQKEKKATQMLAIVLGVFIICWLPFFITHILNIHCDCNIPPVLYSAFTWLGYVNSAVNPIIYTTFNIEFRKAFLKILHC

α1 = target: α1
α2 = target: α2

| Structure (SMILES) | Ki (5-HT2C) [nM] | Ki (5-HT3) [nM] | Ki (D2) [nM] | Ki (α1) [nM] | Ki (α2) [nM] |
| --- | --- | --- | --- | --- | --- |
| CN1CCN2c3ncccc3Cc3ccccc3C2C1 (stereo not drawn) [Mirtazepine, mirtazepine] | 12 | 8 | > 1000 | 500 | 65 |
| CN1CCN2c3ccccc3Cc3ccccc3C2C1 (stereo not drawn) [Mianserin] |  |  | > 1000 |  |  |
